Measured values reported in US12516067B2, “Antagonists of the muscarinic acetylcholine receptor M4” (Vanderbilt University, priority 2020, dated 2026).
pIC50: −log10 of the molar value.

Molecular target: T1, Human M4 (Homo sapiens, UniProt P08173)
T1 construct: expressed in transfected cells; host or cells: CHO-K1 (ATCC), co-transfected with chimeric G protein Gqi5
T1 sequence (P08173 1-479): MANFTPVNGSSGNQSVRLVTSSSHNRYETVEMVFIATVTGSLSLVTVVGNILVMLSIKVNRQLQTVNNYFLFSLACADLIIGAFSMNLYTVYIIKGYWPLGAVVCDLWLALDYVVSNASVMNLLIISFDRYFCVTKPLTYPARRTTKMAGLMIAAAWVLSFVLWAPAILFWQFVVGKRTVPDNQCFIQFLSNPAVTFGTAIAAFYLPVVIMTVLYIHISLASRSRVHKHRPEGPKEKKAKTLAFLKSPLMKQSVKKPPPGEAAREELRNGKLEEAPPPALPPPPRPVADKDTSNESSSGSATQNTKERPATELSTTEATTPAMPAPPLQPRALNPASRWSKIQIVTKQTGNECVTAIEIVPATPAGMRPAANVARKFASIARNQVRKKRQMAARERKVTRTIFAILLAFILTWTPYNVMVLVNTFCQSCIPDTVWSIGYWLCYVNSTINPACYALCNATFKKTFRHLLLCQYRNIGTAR
Assay: mAChR M4 cell-based functional assay (calcium flux, decrease of EC80 acetylcholine response) in M4/Gqi5/CHO-K1 cells
Conditions: CHO-K1 cells with human M4 and Gqi5; for remaining activity at 30 µM: % ACh maximum at 30 μM, read-out: Human M4 Emin; for pIC50: antagonist mode: concentration-dependent decrease of response to EC80 acetylcholine
Method: Human or rat M4 cDNA, along with the chimeric G protein Gqi5, were transfected into Chinese hamster ovary (CHO-K1) cells purchased from the American Type Culture Collection using Lipofectamine2000. M4/Gqi5/CHO cells were grown in Ham's F-12 medium containing 10% heat-inactivated fetal bovine serum (FBS), 20 mM HEPES, 500 μg/mL G418 sulfate, and 200 μg/mL Hygromycin B.
For high throughput measurement of agonist-evoked increases in intracellular calcium, CHO-K1 cells stably expressing muscarinic receptors were plated in growth medium lacking G418 and hygromycin at 15,000 cells/20 μL/well in Greiner 384-well black-walled, tissue culture (TC)-treated, clear-bottom plates (VWR). Cells were incubated overnight at 37° C. and 5% CO2. The next day, cells were washed using an ELX 405 (BioTek) with assay buffer; the final volume was then aspirated to 20 μL. Next, 20 μL of a 2.3 μM stock of Fluo-4/acetoxymethyl ester (Invitrogen, Carlsbad, CA), prepared as a 2.3 mM stock in DMSO and mixed in a 1:1 ratio with 10% (w/v) Pluronic F-127 and diluted in assay buffer, was added to the wells and the cell plates were incubated for 50 min at 37° C. and 5% CO2. Dye was removed by washing with the ELX 405 and the final volume was aspirated to 20 μL. Compound master plates were formatted in a 10 point concentration-response curve (CRC) format (1:3 dilutions) in 100% DMSO with a starting concentration of 10 or 1 mM using a BRAVO liquid handler (Agilent). Test compound CRCs were then transferred to daughter plates (240 nL) using the Echo acoustic plate reformatter (Labcyte, Sunnyvale, CA) and then diluted into assay buffer (40 μL) to a 2× stock using a Thermo Fisher Combi (Thermo Fisher Scientific, Waltham, MA).
Calcium flux was measured using the Functional Drug Screening System (FDSS) 6000 or 7000 (Hamamatsu Corporation, Tokyo, Japan) as an increase in the fluorescent static ratio. Compounds were applied to cells (20 μL, 2×) using the automated system of the FDSS at 2 seconds into the protocol and the data were collected at 1 Hz. At 143 s, 10 μL of an EC20 concentration of the muscarinic receptor agonist acetylcholine was added (5×), followed by the addition of 12 μL of an EC80 concentration of acetylcholine at the 268 s time point (5×). Agonist activity was analyzed as a concentration-dependent increase in calcium mobilization upon compound addition. Positive allosteric modulator activity was analyzed as a concentration-dependent increase in the EC20 acetylcholine response. Antagonist activity was analyzed as a concentration-dependent decrease in the EC80 acetylcholine response; for the purposes of the tables herein, an IC50 (inhibitory concentration 50) was calculated as a concentration-dependent decrease of the response elicited by an EC80 concentration of acetylcholine. Concentration-response curves were generated using a four-parameter logistical equation in XLFit curve fitting software (IDBS, Bridgewater, NJ) for Excel (Microsoft, Redmond, WA) or Prism (GraphPad Software, Inc., San Diego, CA) or the Dotmatics software platform (Dotmatics, Bishop's Stortford, UK).
Compounds were synthesized as described above. Activity (IC50 and Emin) was determined in the mAChR M4 cell-based functional assay as described above and the data are shown in Table 1.

remaining activity at 30 µM [%]	pIC50	SMILES
8	5.90	Cn1cc2cc(-c3ccc(NCc4cccc5c4CCN(CC4CCOCC4)C5)nn3)ccc2n1 [B9, 6-(2-methyl-2H-indazol-5-yl)-N-((2-((tetrahydro-2H-pyran-4-yl)methyl)-1,2,3,4-tetrahydroisoquinolin-5-yl)methyl)pyridazin-3-amine]
5	6.04	[2H]C([2H])(C1CCOCC1)N1CCc2c(CNc3ccc(-c4cc(F)cc(F)c4F)nn3)cccc2C1 [B14, N-((2-((tetrahydro-2H-pyran-4-yl)methyl-d2)-1,2,3,4-tetrahydroisoquinolin-5-yl)methyl)-6-(2,3,5-trifluorophenyl)pyridazin-3-amine]
4	6.74	Fc1ccc(Cl)c(-c2ccc(NCc3csc4c3CCN(Cc3ccccn3)C4)nn2)c1 [A11, 6-(2-chloro-5-fluorophenyl)-N-((6-(pyridin-2-ylmethyl)-4,5,6,7-tetrahydrothieno[2,3-c]pyridin-3-yl)methyl)pyridazin-3-amine]
5	6.47	Cc1ccc(F)cc1-c1ccc(NCc2cccc3c2CCN(CC2CCOCC2)C3)nn1 [B10, 6-(5-fluoro-2-methylphenyl)-N-((2-((tetrahydro-2H-pyran-4-yl)methyl)-1,2,3,4-tetrahydroisoquinolin-5-yl)methyl)pyridazin-3-amine]
6	6.32	c1ccc(-c2ccc(NCc3csc4c3CCN(CC3CCOCC3)C4)nn2)cc1 [A7, 6-phenyl-N-((6-((tetrahydro-2H-pyran-4-yl)methyl)-4,5,6,7-tetrahydrothieno[2,3-c]pyridin-3-yl)methyl)pyridazin-3-amine]
9	6.28	Cn1cc2cc(-c3ccc(NCc4csc5c4CCN(CC4CCOCC4)C5)nn3)ccc2n1 [A3, 6-(2-methyl-2H-indazol-5-yl)-N-((6-((tetrahydro-2H-pyran-4-yl)methyl)-4,5,6,7-tetrahydrothieno[2,3-c]pyridin-3-yl)methyl)pyridazin-3-amine]
7	5.77	CN(Cc1csc2c1CCN(CC1CCOCC1)C2)c1ccc(-c2cc(F)ccc2Cl)nn1 [A14, 6-(2-chloro-5-fluorophenyl)-N-methyl-N-((6-((tetrahydro-2H-pyran-4-yl)methyl)-4,5,6,7-tetrahydrothieno[2,3-c]pyridin-3-yl)methyl)pyridazin-3-amine]
8	6.02	[2H]C([2H])([2H])N(Cc1csc2c1CCN(CC1CCOCC1)C2)c1ccc(-c2cc(F)ccc2Cl)nn1 [A15, 6-(2-chloro-5-fluorophenyl)-N-(methyl-d3)-N-((6-((tetrahydro-2H-pyran-4-yl)methyl)-4,5,6,7-tetrahydrothieno[2,3-c]pyridin-3-yl)methyl)pyridazin-3-amine]
6	6.60	Fc1ccc(Cl)c(-c2ccc(NCc3cccc4c3CCN(CC3CCCCC3)C4)nn2)c1 [B3, 6-(2-chloro-5-fluorophenyl)-N-((2-(cyclohexylmethyl)-1,2,3,4-tetrahydroisoquinolin-5-y1)methyl)pyridazin-3-amine]
6	6.59	OC1(CN2CCc3c(CNc4ccc(-c5cc(F)ccc5Cl)nn4)cccc3C2)CCCCC1 [B6, 1-((5-(((6-(2-chloro-5-fluorophenyl)pyridazin-3-yl)amino)methyl)-3,4-dihydroisoquinolin-2(1H)-yl)methyl)cyclohexan-1-ol]
13	5.47	c1ccc(-c2ccc(NCc3cccc4c3CCN(CC3CCOCC3)C4)nn2)cc1 [B12, 6-phenyl-N-((2-((tetrahydro-2H-pyran-4-yl)methyl)-1,2,3,4-tetrahydroisoquinolin-5-yl)methyl)pyridazin-3-amine]
5	7.33	[2H]C([2H])(C1CCOCC1)N1CCc2c(CNc3ccc(-c4cc(F)ccc4Cl)nn3)csc2C1 [A16, 6-(2-chloro-5-fluorophenyl)-N-((6-((tetrahydro-2H-pyran-4-yl)methyl-d2)-4,5,6,7-tetrahydrothieno[2,3-c]pyridin-3-yl)methyl)pyridazin-3-amine]
3	7.07	Fc1ccc(Cl)c(-c2ccc(NCc3csc4c3CCN(CC3CCOCC3)C4)nn2)c1 [A2, 6-(2-chloro-5-fluorophenyl)-N-((6-((tetrahydro-2H-pyran-4-yl)methyl)-4,5,6,7-tetrahydrothieno[2,3-c]pyridin-3-yl)methyl)pyridazin-3-amine]
4	6.56	OC1(CN2CCc3c(CNc4ccc(-c5cc(F)ccc5Cl)nn4)csc3C2)CCCCC1 [A13, 1-((3-(((6-(2-chloro-5-fluorophenyl)pyridazin-3-yl)amino)methyl)-4,7-dihydrothieno[2,3-c]pyridin-6(5H)-yl)methyl)cyclohexan-1-ol]
5	7.00	Fc1ccc(Cl)c(-c2ccc(NCc3csc4c3CCN(CC3CCCCC3)C4)nn2)c1 [A9, 6-(2-chloro-5-fluorophenyl)-N-((6-(cyclohexylmethyl)-4,5,6,7-tetrahydrothieno[2,3-c]pyridin-3-yl)methyl)pyridazin-3-amine]
5	7.11	Cc1ccc(F)cc1-c1ccc(NCc2csc3c2CCN(CC2CCOCC2)C3)nn1 [A5, 6-(5-fluoro-2-methylphenyl)-N-((6-((tetrahydro-2H-pyran-4-yl)methyl)-4,5,6,7-tetrahydrothieno[2,3-c]pyridin-3-yl)methyl)pyridazin-3-amine]
6	7.00	CC(C)(C)CCN1CCc2c(CNc3ccc(-c4cc(F)ccc4Cl)nn3)cccc2C1 [B2, 6-(2-chloro-5-fluorophenyl)-N-((2-(3,3-dimethylbutyl)-1,2,3,4-tetrahydroisoquinolin-5-yl)methyl)pyridazin-3-amine]
4	6.38	Fc1ccc(F)c(-c2ccc(NCc3csc4c3CCN(CC3CCOCC3)C4)nn2)c1 [A4, 6-(2,5-difluorophenyl)-N-((6-((tetrahydro-2H-pyran-4-yl)methyl)-4,5,6,7-tetrahydrothieno[2,3-c]pyridin-3-yl)methyl)pyridazin-3-amine]
6	7.06	Fc1ccc(Cl)c(-c2ccc(NCc3cccc4c3CCN(CCC3CCOCC3)C4)nn2)c1 [B5, 6-(2-chloro-5-fluorophenyl)-N-((2-(2-(tetrahydro-2H-pyran-4-yl)ethyl)-1,2,3,4-tetrahydroisoquinolin-5-yl)methyl)pyridazin-3-amine]
6	6.54	Fc1ccc(Cl)c(-c2ccc(NCc3cccc4c3CCN(Cc3ccccn3)C4)nn2)c1 [B4, 6-(2-chloro-5-fluorophenyl)-N-((2-(pyridin-2-ylmethyl)-1,2,3,4-tetrahydroisoquinolin-5-yl)methyl)pyridazin-3-amine]
